Data: PubChem BioAssay AID330 (DTP/NCI, 2004)
Several values for one entry are separate records, joined by “and”; a condition that tells them apart may be missing. Identical values can stand only once. Inconclusive results and toxic doses are left out. Numbered stars: 1 amine (or outer) side, 2 acyl side, 3 side chain; on linkers, the order of the positions; unused ones are H or OH. Bridge positions count the residues as written; N and C are the ends. Square brackets hold non-standard residues; d marks the D form. Peptide text beside a SMILES is read from it. I, II: the chains in the order shown. * marks the point of attachment. ξ: configuration not given here. Actinocin(9to1) = Cc1c2oc3c(C)ccc(C(=O)[*:1])c3nc-2c(C(=O)[*:2])c(N)c1=O; NMeV = CN[CH](C(=O)O)C(C)C; Pip = O=C(O)[CH]1CCCCN1; Cbz = O=C(OCc1ccccc1)*; ξT = CC(O)C(N)C(=O)O; Sar = CNCC(=O)O

Tested on: P388 leukemia ip, CD2F1 mice, survival T/C
Assay: NCI In Vivo Anticancer Drug Screen. Data for tumor model P388 Leukemia (intraperitoneal) in CD2F1 (CDF1) mice
Details: endpoint: median survival time, higher = longer survival
In short: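 Mice carrying the transplanted tumor received test compound or vehicle. Survival was recorded in each group, and the value is the treated-group measurement divided by that of the vehicle-treated control group.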

CN1CCC(=C2c3ccccc3C(=O)C(=O)c3sccc32)CC1
T/C (dose: 50.0 mg/kg/injection, schedule: Q01DX009 (ip), vehicle: saline with Tween-80): 95 % of control | T/C (dose: 100.0 mg/kg/injection, schedule: Q01DX009 (ip), vehicle: saline with Tween-80): 95 % of control | T/C (dose: 200.0 mg/kg/injection, schedule: Q01DX009 (ip), vehicle: saline with Tween-80): 111 % of control

CC(C)c1nc(C=O)c(C=O)n1Cc1ccccc1
T/C (dose: 60.0 mg/kg/injection, schedule: Q01DX005 (ip), vehicle: saline with Tween-80): 97 % of control | T/C (dose: 120.0 mg/kg/injection, schedule: Q01DX005 (ip), vehicle: saline with Tween-80): 92 % of control | T/C (dose: 240.0 mg/kg/injection, schedule: Q01DX005 (ip), vehicle: saline with Tween-80): 97 % of control

CCc1c(C)[nH]c2ccc(N)cc12
T/C (dose: 25.0 mg/kg/injection, schedule: Q04DX003 (ip), vehicle: saline with Tween-80): 99 % of control | T/C (dose: 50.0 mg/kg/injection, schedule: Q04DX003 (ip), vehicle: saline with Tween-80): 93 % of control | T/C (dose: 100.0 mg/kg/injection, schedule: Q04DX003 (ip), vehicle: saline with Tween-80): 93 % of control | T/C (dose: 200.0 mg/kg/injection, schedule: Q04DX003 (ip), vehicle: saline with Tween-80): 110 % of control

CC(=O)O[C@H]1C[C@@H]2C(COC(=O)CC(C)C)=CO[C@@H](OC(=O)CC(C)C)[C@@H]2[C@@]12CO2
T/C (dose: 3.75 mg/kg/injection, schedule: Q01DX005 (ip), vehicle: Klucel (hydroxypropylcellulose) (HPC)): 105 % of control | T/C (dose: 7.5 mg/kg/injection, schedule: Q01DX005 (ip), vehicle: Klucel (hydroxypropylcellulose) (HPC)): 101 % of control | T/C (dose: 15.0 mg/kg/injection, schedule: Q01DX005 (ip), vehicle: Klucel (hydroxypropylcellulose) (HPC)): 88 % of control | T/C (dose: 30.0 mg/kg/injection, schedule: Q01DX005 (ip), vehicle: Klucel (hydroxypropylcellulose) (HPC)): 95 % of control | T/C (dose: 60.0 mg/kg/injection, schedule: Q01DX005 (ip), vehicle: Klucel (hydroxypropylcellulose) (HPC)): 101 % of control

O=C1c2ccccc2CC12OC2c1ccccc1 (centres undefined)
T/C (dose: 25.0 mg/kg/injection, schedule: Q01DX009 (ip), vehicle: Klucel (hydroxypropylcellulose) (HPC)): 96 % of control | T/C (dose: 50.0 mg/kg/injection, schedule: Q01DX009 (ip), vehicle: Klucel (hydroxypropylcellulose) (HPC)): 92 % of control | T/C (dose: 100.0 mg/kg/injection, schedule: Q01DX009 (ip), vehicle: Klucel (hydroxypropylcellulose) (HPC)): 92 % of control | T/C (dose: 200.0 mg/kg/injection, schedule: Q01DX009 (ip), vehicle: Klucel (hydroxypropylcellulose) (HPC)): 89 % of control | T/C (dose: 400.0 mg/kg/injection, schedule: Q01DX009 (ip), vehicle: Klucel (hydroxypropylcellulose) (HPC)): 92 % of control

C1CCC(CCCCc2nn[nH]n2)CC1
T/C (dose: 50.0 mg/kg/injection, schedule: Q01DX005 (ip), vehicle: saline with Tween-80): 102 % of control | T/C (dose: 100.0 mg/kg/injection, schedule: Q01DX005 (ip), vehicle: saline with Tween-80): 100 % of control

CC(O)C(NC(=O)CNC(=O)CNC(=O)OCc1ccccc1)C(=O)O (stereo not drawn) (Cbz-Gly-Gly-[ξT]-OH)
T/C (dose: 50.0 mg/kg/injection, schedule: Q01DX005 (ip), vehicle: Klucel (hydroxypropylcellulose) (HPC)): 96 % of control | T/C (dose: 100.0 mg/kg/injection, schedule: Q01DX005 (ip), vehicle: Klucel (hydroxypropylcellulose) (HPC)): 98 % of control | T/C (dose: 200.0 mg/kg/injection, schedule: Q01DX005 (ip), vehicle: Klucel (hydroxypropylcellulose) (HPC)): 95 % of control

COc1ccc(C(CC(=O)NCCCl)CC(=O)NCCCl)cc1
T/C (dose: 100.0 mg/kg/injection, schedule: Q01DX001 (ip), vehicle: suspension in saline): 101 % of control | T/C (dose: 200.0 mg/kg/injection, schedule: Q01DX001 (ip), vehicle: suspension in saline): 100 % of control

CN(C)CCC(=O)c1ccc2c(c1)OCO2
T/C (dose: 60.0 mg/kg/injection, schedule: Q01DX005 (ip), vehicle: saline): 100 % of control | T/C (dose: 120.0 mg/kg/injection, schedule: Q01DX005 (ip), vehicle: saline): 92 % of control

O=C1NC(=O)C2=C1NCCN2
T/C (dose: 100.0 mg/kg/injection, schedule: Q04DX003 (ip), vehicle: saline): 107 % of control | T/C (dose: 200.0 mg/kg/injection, schedule: Q04DX003 (ip), vehicle: saline): 104 % of control | T/C (dose: 400.0 mg/kg/injection, schedule: Q04DX003 (ip), vehicle: saline): 99 % of control

OC(c1cc(F)c(F)c(F)c1F)(C(F)(F)F)C(F)(F)F
T/C (dose: 100.0 mg/kg/injection, schedule: Q04DX003 (ip), vehicle: suspension in saline): 98 % of control | T/C (dose: 200.0 mg/kg/injection, schedule: Q04DX003 (ip), vehicle: suspension in saline): 104 % of control | T/C (dose: 400.0 mg/kg/injection, schedule: Q04DX003 (ip), vehicle: suspension in saline): 101 % of control

Cc1c2oc3c(C)ccc(C(=O)NC4C(=O)NC(C(C)C)C(=O)N5CCCCC5C(=O)N(C)CC(=O)N(C)C(C(C)C)C(=O)OC4C)c3nc-2c(C(=O)NC2C(=O)NC(C(C)C)C(=O)N3CCCCC3C(=O)N(C)CC(=O)N(C)C(C(C)C)C(=O)OC2C)c(N)c1=O (centres undefined) (I: TV[Pip][Sar][NMeV] / II: TV[Pip][Sar][NMeV]; ester I:1-I:C, II:1-II:C; linker I:N-II:N via Actinocin(9to1); configuration not given here)
T/C (dose: 0.39 mg/kg/injection, schedule: Q01DX009 (ip), vehicle: saline with Tween-80): 110 % of control | T/C (dose: 0.78 mg/kg/injection, schedule: Q01DX009 (ip), vehicle: saline with Tween-80): 119 % of control | T/C (dose: 1.56 mg/kg/injection, schedule: Q01DX009 (ip), vehicle: saline with Tween-80): 180 % of control | T/C (dose: 3.12 mg/kg/injection, schedule: Q01DX009 (ip), vehicle: saline with Tween-80): 190 % of control | T/C (dose: 6.25 mg/kg/injection, schedule: Q01DX009 (ip), vehicle: saline with Tween-80): 165 % of control and 209 % of control | T/C (dose: 12.5 mg/kg/injection, schedule: Q01DX009 (ip), vehicle: saline with Tween-80): 195 % of control

O=C1C=C(NCCC2CCCN3CCCCC23)C(=O)c2ccccc21 (centres undefined)
T/C (dose: 12.5 mg/kg/injection, schedule: Q01DX001 (ip), vehicle: Klucel (hydroxypropylcellulose) (HPC)): 98 % of control | T/C (dose: 25.0 mg/kg/injection, schedule: Q01DX001 (ip), vehicle: Klucel (hydroxypropylcellulose) (HPC)): 95 % of control | T/C (dose: 50.0 mg/kg/injection, schedule: Q01DX001 (ip), vehicle: Klucel (hydroxypropylcellulose) (HPC)): 100 % of control
